In one experiment the test system is NCI-H2170. Put plainly: relative viability (nuclei count vs DMSO), 5 days (fraction); higher = more cells survive. To be noted: first compound 2.53 µM. Summed up: (§1)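 Dosing by pin tool came one day after lung cancer cell lines were seeded in 1536-well plates, using either one drug or a fixed anchor-drug dose plus five library-drug doses (not always all listed) in √10 steps. After 5 days, nuclei were counted on 4× images. Relative viability is treated-well nuclei count divided by vehicle-well nuclei count, and values are medians of duplicate plates.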
Compound `CCCCCCCCCCCC1=C(O)C(=O)C=C(O)C1=O` [Embelin] + CC(=O)Nc1cccc(-n2c(=O)n(C3CC3)c(=O)c3c(Nc4ccc(I)cc4F)n(C)c(=O)c(C)c32)c1 [Trametinib] (partner 0.02 µM) yielded a relative viability of 1.11.
Same read-out and setting: as for `CCCCCCCCCCCC1=C(O)C(=O)C=C(O)C1=O` [Embelin] + CS(=O)(=O)N1CCN(Cc2cc3nc(-c4cccc5[nH]ncc45)nc(N4CCOCC4)c3s2)CC1 [Pictilisib] (partner 1 µM), the figure is 0.366; as for `CCCCCCCCCCCC1=C(O)C(=O)C=C(O)C1=O` [Embelin] + NC(=O)Nc1cc(-c2cccc(F)c2)sc1C(=O)N[C@H]1CCCNC1 [AZD7762] (partner 0.2 µM), 1.06.
Same read-out and setting: the figure for `CCCCCCCCCCCC1=C(O)C(=O)C=C(O)C1=O` [Embelin] + Cc1nc(NC(=O)N2CCC[C@H]2C(N)=O)sc1-c1ccnc(C(C)(C)C(F)(F)F)c1 [Alpelisib] (partner 2 µM) is 0.92.

The experiment is the same for the next values; noted with them: first compound 8 µM.
`CCCCCCCCCCCC1=C(O)C(=O)C=C(O)C1=O` [Embelin] + COc1cc2c(Oc3ccc(NC(=O)C4(C(=O)Nc5ccc(F)cc5)CC4)cc3F)ccnc2cc1OCCCN1CCOCC1 [Foretinib] (partner 0.25 µM) came in with a relative viability of 1.
Same read-out and setting: the figure for `CCCCCCCCCCCC1=C(O)C(=O)C=C(O)C1=O` [Embelin] + CC(=O)Nc1cccc(-n2c(=O)n(C3CC3)c(=O)c3c(Nc4ccc(I)cc4F)n(C)c(=O)c(C)c32)c1 [Trametinib] (partner 0.02 µM) is 0.9.
Same read-out and setting: as for `CCCCCCCCCCCC1=C(O)C(=O)C=C(O)C1=O` [Embelin] + CS(=O)(=O)N1CCN(Cc2cc3nc(-c4cccc5[nH]ncc45)nc(N4CCOCC4)c3s2)CC1 [Pictilisib] (partner 1 µM), the figure is 0.286.
Still for that read-out and setting: as for `CCCCCCCCCCCC1=C(O)C(=O)C=C(O)C1=O` [Embelin] + NC(=O)Nc1cc(-c2cccc(F)c2)sc1C(=O)N[C@H]1CCCNC1 [AZD7762] (partner 0.2 µM), the figure is 0.914.
With `CCCCCCCCCCCC1=C(O)C(=O)C=C(O)C1=O` [Embelin] + Cc1nc(NC(=O)N2CCC[C@H]2C(N)=O)sc1-c1ccnc(C(C)(C)C(F)(F)F)c1 [Alpelisib] (partner 2 µM), the relative viability was 0.777.

For another experiment, the system named is EMC-BAC-2. The experiment is described as above. Particulars: first compound 0.08 µM. Summed up:
as §1
On to `CCCCCCCCCCCC1=C(O)C(=O)C=C(O)C1=O` [Embelin] + COc1cc2c(Oc3ccc(NC(=O)C4(C(=O)Nc5ccc(F)cc5)CC4)cc3F)ccnc2cc1OCCCN1CCOCC1 [Foretinib] (partner 0.25 µM), for which the relative viability amounted to 1.05.
`CCCCCCCCCCCC1=C(O)C(=O)C=C(O)C1=O` [Embelin] + CC(=O)Nc1cccc(-n2c(=O)n(C3CC3)c(=O)c3c(Nc4ccc(I)cc4F)n(C)c(=O)c(C)c32)c1 [Trametinib] (partner 0.02 µM) displayed a relative viability of 0.845.
On the same count and under the same terms, the figure for `CCCCCCCCCCCC1=C(O)C(=O)C=C(O)C1=O` [Embelin] + CS(=O)(=O)N1CCN(Cc2cc3nc(-c4cccc5[nH]ncc45)nc(N4CCOCC4)c3s2)CC1 [Pictilisib] (partner 1 µM) is 0.498; for `CCCCCCCCCCCC1=C(O)C(=O)C=C(O)C1=O` [Embelin] + NC(=O)Nc1cc(-c2cccc(F)c2)sc1C(=O)N[C@H]1CCCNC1 [AZD7762] (partner 0.2 µM) it is 1.12; for `CCCCCCCCCCCC1=C(O)C(=O)C=C(O)C1=O` [Embelin] + Cc1nc(NC(=O)N2CCC[C@H]2C(N)=O)sc1-c1ccnc(C(C)(C)C(F)(F)F)c1 [Alpelisib] (partner 2 µM) it is 0.75.

The same experiment, now with this note: first compound 0.8 µM.
`CCCCCCCCCCCC1=C(O)C(=O)C=C(O)C1=O` [Embelin] + COc1cc2c(Oc3ccc(NC(=O)C4(C(=O)Nc5ccc(F)cc5)CC4)cc3F)ccnc2cc1OCCCN1CCOCC1 [Foretinib] (partner 0.25 µM) gave a relative viability of 1.09.
Still for that read-out and setting: as for `CCCCCCCCCCCC1=C(O)C(=O)C=C(O)C1=O` [Embelin] + CC(=O)Nc1cccc(-n2c(=O)n(C3CC3)c(=O)c3c(Nc4ccc(I)cc4F)n(C)c(=O)c(C)c32)c1 [Trametinib] (partner 0.02 µM), the figure is 1.08; as for `CCCCCCCCCCCC1=C(O)C(=O)C=C(O)C1=O` [Embelin] + CS(=O)(=O)N1CCN(Cc2cc3nc(-c4cccc5[nH]ncc45)nc(N4CCOCC4)c3s2)CC1 [Pictilisib] (partner 1 µM), 0.533.
On the same count and under the same terms, as for `CCCCCCCCCCCC1=C(O)C(=O)C=C(O)C1=O` [Embelin] + NC(=O)Nc1cc(-c2cccc(F)c2)sc1C(=O)N[C@H]1CCCNC1 [AZD7762] (partner 0.2 µM), the figure is 1.22.
Same read-out and setting: the figure for `CCCCCCCCCCCC1=C(O)C(=O)C=C(O)C1=O` [Embelin] + Cc1nc(NC(=O)N2CCC[C@H]2C(N)=O)sc1-c1ccnc(C(C)(C)C(F)(F)F)c1 [Alpelisib] (partner 2 µM) is 0.736.

The same experiment, now with this note: first compound 2.53 µM.
Turning to `CCCCCCCCCCCC1=C(O)C(=O)C=C(O)C1=O` [Embelin] + COc1cc2c(Oc3ccc(NC(=O)C4(C(=O)Nc5ccc(F)cc5)CC4)cc3F)ccnc2cc1OCCCN1CCOCC1 [Foretinib] (partner 0.25 µM), the relative viability was 0.973.
On the same count and under the same terms, the figure for `CCCCCCCCCCCC1=C(O)C(=O)C=C(O)C1=O` [Embelin] + CC(=O)Nc1cccc(-n2c(=O)n(C3CC3)c(=O)c3c(Nc4ccc(I)cc4F)n(C)c(=O)c(C)c32)c1 [Trametinib] (partner 0.02 µM) is 0.883.
Same read-out and setting: as for `CCCCCCCCCCCC1=C(O)C(=O)C=C(O)C1=O` [Embelin] + CS(=O)(=O)N1CCN(Cc2cc3nc(-c4cccc5[nH]ncc45)nc(N4CCOCC4)c3s2)CC1 [Pictilisib] (partner 1 µM), the figure is 0.442; as for `CCCCCCCCCCCC1=C(O)C(=O)C=C(O)C1=O` [Embelin] + NC(=O)Nc1cc(-c2cccc(F)c2)sc1C(=O)N[C@H]1CCCNC1 [AZD7762] (partner 0.2 µM), 1.13; as for `CCCCCCCCCCCC1=C(O)C(=O)C=C(O)C1=O` [Embelin] + Cc1nc(NC(=O)N2CCC[C@H]2C(N)=O)sc1-c1ccnc(C(C)(C)C(F)(F)F)c1 [Alpelisib] (partner 2 µM), 0.792.

Staying with this experiment, now noted: first compound 8 µM.
`CCCCCCCCCCCC1=C(O)C(=O)C=C(O)C1=O` [Embelin] + COc1cc2c(Oc3ccc(NC(=O)C4(C(=O)Nc5ccc(F)cc5)CC4)cc3F)ccnc2cc1OCCCN1CCOCC1 [Foretinib] (partner 0.25 µM) displayed a relative viability of 1.07.
The same measure, in the same setting: as for `CCCCCCCCCCCC1=C(O)C(=O)C=C(O)C1=O` [Embelin] + CC(=O)Nc1cccc(-n2c(=O)n(C3CC3)c(=O)c3c(Nc4ccc(I)cc4F)n(C)c(=O)c(C)c32)c1 [Trametinib] (partner 0.02 µM), the figure is 0.913; as for `CCCCCCCCCCCC1=C(O)C(=O)C=C(O)C1=O` [Embelin] + CS(=O)(=O)N1CCN(Cc2cc3nc(-c4cccc5[nH]ncc45)nc(N4CCOCC4)c3s2)CC1 [Pictilisib] (partner 1 µM), 0.476; as for `CCCCCCCCCCCC1=C(O)C(=O)C=C(O)C1=O` [Embelin] + NC(=O)Nc1cc(-c2cccc(F)c2)sc1C(=O)N[C@H]1CCCNC1 [AZD7762] (partner 0.2 µM), 1.06.
On the same count and under the same terms, the figure for `CCCCCCCCCCCC1=C(O)C(=O)C=C(O)C1=O` [Embelin] + Cc1nc(NC(=O)N2CCC[C@H]2C(N)=O)sc1-c1ccnc(C(C)(C)C(F)(F)F)c1 [Alpelisib] (partner 2 µM) is 0.825.

The record behind these values is the supplement of paper PMC10307832.
